The values that follow come from US20240025863A1, “SOS1 PROTEIN DEGRADERS, PHARMACEUTICAL COMPOSITIONS THEREOF, AND THEIR THERAPEUTIC APPLICATIONS” (BioTheryX, Inc., priority 2020, published 2024).

Common to all, as to type: cell-based
The subject of one assay is Lovo cells (G13D). As to the kind of experiment: Cell viability assay (CellTiter-Glo), Lovo cells. The conditions noted are these: Homo sapiens, 72 h; Lovo cells, 3 days incubation, CellTiter-Glo luminescence; read-out: Inhibition of Cancerous Cells IC50 Lovo (G13D). Summed up:
(§1)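 3 d compound vs DMSO, 37 °C, 5% CO2; medium 2.5% FBS (RPMI 1640: H358, SW48; DMEM: Lovo, SW480). Seeding 2,000 (96-well) or 500 (384-well) cells/well, Lovo 4,000/1,000. Read-out: CellTiter-Glo luminescence.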

The subject of the next assay is AsPC-1 cells (G12D). As to the kind of experiment: Cell viability assay (CellTiter-Glo), AsPC-1 cells. The conditions noted are these: Homo sapiens, ASPC1, 72 h, 3 days incubation, CellTiter-Glo luminescence, read-out: Inhibition of Cancerous Cells IC50 AsPC-1 (G12D). How it is done: H358, H23, SW48, and AsPC-1 cells were cultured in RPMI 1640 media supplemented with 10% fetal bovine serum, streptomycin, and penicillin. Lovo and SW480 cells were cultured in DMEM media supplemented with 10% fetal bovine serum, streptomycin, and penicillin. The cell lines were plated in their respective medium supplemented with 2.5% fetal bovine serum, streptomycin, and penicillin. All cell lines were plated in white walled 96-well plates at 2,000 cells/well or 384-well plates at 500 cells/well, except Lovo, which were plated at 4,000 or 1,000 cells/well, respectively. The cells were incubated in DMSO (control) or a compound for 3 days at 37° C. under 5% CO2. A CELLTITER-GLO® reagent (100 μL) was then added to each well. After a 10 min incubation with shaking, luminescence was measured using an ENVISION® multimode plate reader.

The subject of the next assay is SW480 cells (G12V). As to the kind of experiment: Cell viability assay (CellTiter-Glo), SW480 cells. The conditions noted are these: Homo sapiens, 72 h; SW480 cells, 3 days incubation, CellTiter-Glo luminescence; read-out: Inhibition of Cancerous Cells IC50 SW480 (G12V). Summed up:
as §1

The next assay relates to H358 cells (G12C). As to the kind of experiment: Cell viability assay (CellTiter-Glo), H358 cells. The conditions noted are these: Homo sapiens, NCI-H358, 72 h; H358 cells, 3 days incubation, CellTiter-Glo luminescence; read-out: Inhibition of Cancerous Cells IC50 H358 (G12C). Summed up: as §1
In a further assay the test system is SW48 cells (wt). As to the kind of experiment: Cell viability assay (CellTiter-Glo), SW48 cells. The conditions noted are these: Homo sapiens, 72 h; SW48 cells, 3 days incubation, CellTiter-Glo luminescence; read-out: Inhibition of Cancerous Cells IC50 SW48 (wt). In outline:
as §1

The structures appear in SMILES notation. Bounds are passed on as bounds.

Regarding `COc1cc2c(N[C@H](C)c3cc(N)cc(C(F)(F)F)c3)nc(C)nc2cc1OCCCCCCCN1CCC(c2cc3c(cc2F)C(=O)N(C2CCC(=O)NC2=O)C3)CC1` (stereo partly drawn) [Compound A28, 3-(5-(1-(7-((4-(((R)-1-(3-Amino-5-(trifluoromethyl)phenyl)ethyl)amino)-6-methoxy-2-methylquinazolin-7-yl)oxy)heptyl)piperidin-4-yl)-6-fluoro-1-oxoisoindolin-2-yl)-piperidine-2,6-dione], the IC50 with Lovo cells (G13D) amounted to 0.55 µM; with AsPC-1 cells (G12D), 1.1 µM; with SW480 cells (G12V), 0.5 µM; in the assay on H358 cells (G12C), 1.2 µM; in the assay on SW48 cells (wt) it was 0.44 µM.

`COc1cc2c(N[C@H](C)c3cccc(Br)c3)nc(C)nc2cc1OCCCCN1CCN(C(=O)COc2cc3c(cc2F)C(=O)N(C2CCC(=O)NC2=O)C3)CC1` (stereo partly drawn) [Compound A29, 3-(5-(2-(4-(4-((4-(((R)-1-(3-Bromophenyl)ethyl)amino)-6-methoxy-2-methyl-quinazolin-7-yl)oxy)butyl)piperazin-1-yl)-2-oxoethoxy)-6-fluoro-1-oxoisoindolin-2-yl)-piperidine-2,6-dione]: the 50% inhibitory concentration (IC50) was 0.73 µM with Lovo cells (G13D); more than 10 µM in the assay on AsPC-1 cells (G12D); 5.7 µM with SW480 cells (G12V); 6.8 µM in the assay on H358 cells (G12C); 0.89 µM in the assay with SW48 cells (wt).

Regarding `COc1cc2c(N[C@H](C)c3cccc(Br)c3)nc(C)nc2cc1OCCCCN1CCN(C(=O)CNc2cc3c(cc2F)C(=O)N(C2CCC(=O)NC2=O)C3)CC1` (stereo partly drawn) [Compound A30, 3-(5-((2-(4-(4-((4-(((R)-1-(3-Bromophenyl)ethyl)amino)-6-methoxy-2-methyl-quinazolin-7-yl)oxy)butyl)piperazin-1-yl)-2-oxoethyl)amino)-6-fluoro-1-oxoisoindolin-2-yl)-piperidine-2,6-dione], the IC50 amounted to 0.04 µM in the assay with Lovo cells (G13D); 7.8 µM with AsPC-1 cells (G12D); 3.9 µM in the assay on SW480 cells (G12V); 4.2 µM with H358 cells (G12C); 0.64 µM with SW48 cells (wt).

Turning to `COc1cc2c(N[C@H](C)c3cccc(Br)c3)nc(C)nc2cc1OCCCCCN1CCN(C(=O)CNc2cc3c(cc2F)C(=O)N(C2CCC(=O)NC2=O)C3)CC1` (stereo partly drawn) [Compound A32, 3-(5-((2-(4-(5-((4-(((R)-1-(3-Bromophenyl)ethyl)amino)-6-methoxy-2-methyl-quinazolin-7-yl)oxy)pentyl)piperazin-1-yl)-2-oxoethyl)amino)-6-fluoro-1-oxoisoindolin-2-yl)-piperidine-2,6-dione], the IC50 with Lovo cells (G13D) was 0.06 µM; in the assay on AsPC-1 cells (G12D) it was more than 10 µM; with SW480 cells (G12V), 4.4 µM; in the assay on H358 cells (G12C), more than 10 µM; with SW48 cells (wt), 0.47 µM.

Take `COc1cc2c(N[C@H](C)c3cccc(Br)c3)nc(C)nc2cc1OCCCCCCCCCOc1cc(-c2scnc2C)ccc1CNC(=O)[C@@H]1C[C@@H](O)CN1C(=O)[C@@H](NC(C)=O)C(C)(C)C` [Compound D12, (2S,4R)-1-((S)-2-acetamido-3,3-dimethylbutanoyl)-N-(2-((9-((4-(((R)-1-(3-bromophenyl)ethyl)amino)-6-methoxy-2-methylquinazolin-7-yl)oxy)nonyl)oxy)-4-(4-methylthiazol-5-yl)benzyl)-4-hydroxypyrrolidine-2-carboxamide]: the IC50 with Lovo cells (G13D) was 3.1 µM; with SW480 cells (G12V), 3.5 µM; in the assay on H358 cells (G12C) it was 4.3 µM; in the assay with SW48 cells (wt), 5.4 µM.

Regarding `COc1cc2c(N[C@H](C)c3cccc(Br)c3)nc(C)nc2cc1OCCCCCCCCCCCOc1cc(-c2scnc2C)ccc1CNC(=O)[C@@H]1C[C@@H](O)CN1C(=O)[C@@H](NC(C)=O)C(C)(C)C` [Compound D13, (2S,4R)-1-((S)-2-Acetamido-3,3-dimethylbutanoyl)-N-(2-((11-((4-(((R)-1-(3-bromophenyl)ethyl)amino)-6-methoxy-2-methylquinazolin-7-yl)oxy)undecyl)oxy)-4-(4-methylthiazol-5-yl)benzyl)-4-hydroxypyrrolidine-2-carboxamide], the IC50 with Lovo cells (G13D) is 1.6 µM; with SW480 cells (G12V), 2.9 µM; in the assay with H358 cells (G12C), more than 10 µM; in the assay on SW48 cells (wt), more than 10 µM.
